# Laboratory results reported in US9333233B2, “Methods and compositions for the delayed treatment of stroke” (TARIX PHARMACEUTICALS LTD., priority 2014, dated 2016).
# Assays:
# Type in all cases: in vivo
# [1] = test system: rat Transient Middle Cerebral Artery Occlusion (tMCAO) model; assay: Neuroscore (Modified Neurological Rating Scale, mNRS) in rat tMCAO stroke model
# Experimental: (§1) Transient middle cerebral artery occlusion was performed according to the method described R. Schmid-Eisaesser et al. Briefly, the right CCA (Common Carotid Artery) was exposed through a midline neck incision and carefully dissected free from surrounding nerves and fascia —from its bifurcation to the base of the skull. The occipital artery branches of the ECA (External Carotid Artery) were then isolated, and these branches were dissected and coagulated. The ECA was dissected further distally and coagulated along with the terminal lingual and maxillary artery branches, which was then divided. The ICA (Internal Carotid Artery) was isolated and carefully separated from the adjacent vagus nerve, and the pterygopalatine artery was ligated close to its origin with a 5-0 nylon suture (SMI, Belgium). Next a 4-0 silk suture was tied loosely around the mobilized ECA stump, and a 4 cm length of 4-0 monofilament nylon suture (the tip of the suture was blunted by using a flame, and the suture was coated with polylysine, prior to insertion) was inserted through the proximal ECA into the ICA and thence into the circle of Willis, effectively occluding the MCA. The surgical wound was closed and the animals were returned to their cages to recover from anesthesia. One hour and a half after occlusion rats were re-anesthetized, the monofilament was withdrawn to allow reperfusion, the surgical wound was closed and rats were returned to their cages.
# Animals were subjected to the mNSS test (Neuroscore) at Day 2, 24 hours post reperfusion. Only animals with an overall score of ≧10 were included in this Example.
# Each animal was also subjected to a neuroscore test. The Modified Neurological Rating Scale (mNRS), or Neuroscore, was performed before the operation, on Day 2 and on Day 15, Day 22, Day 29, Day 36 Day 43 and Day 50. The individual making the behavioral assessments was unaware of the drug/dose given (blind test). A total Neuroscore of 18 was possible, with higher scores correlating to worse functioning.
# (§2) As in Example 1, each animal was subjected to a neuroscore test. The Modified Neurological Rating Scale (mNRS), or Neuroscore, was performed before the operation as described in Example 1 on day 2, day 29, day 43, day 50, day 57, day 64 and day 71. The individual making the behavioral assessments was unaware of the drug/dose given (blind test).
# as §2, with “Examples 1 and 2,” for “Example 1,”, “64, day 71. Day 78,” for “64”, “85.” for “71.”
# [2] = test system: rat Transient Middle Cerebral Artery Occlusion (tMCAO) model; assay: Limb placement test in rat tMCAO stroke model
# Experimental: as §1
# Animals were subjected to a limb placement test. The limb placing tests were divided into both forelimb and hindlimb tests. For the forelimb-placing test, the examiner held the rat close to a tabletop and scored the rat's ability to place the forelimb on the tabletop in response to whisker, visual, tactile or proprioceptive stimulation. Similarly, for the hindlimb placing test, the examiner assessed the rat's ability to place the hindlimb on the tabletop in response to tactile and proprioceptive stimulation. Separate sub-scores are obtained for each mode of sensory input and added to give total scores (for the forelimb placing test: 0=normal, 12=maximally impaired; for the hindlimb placing test: 0=normal; 6=maximally impaired). Scores were given in half-point increments (see below).
# Forelimb placing test (0-12);
# Visual placing (forward (0-2), sideways (0-2))
# Tactile placing (dorsal (0-2), lateral (0-2))
# Proprioceptive placing (0-2)
# Animals were also subjected to a limb placement test as described in Example 1 on days 29, 43, 50, 57, 64 and 71.
# Animals were also subjected to a limb placement test as described in Example 1 on days 29, 43, 50, 57, 64, 71, 78 and 85.
# [3] = test system: rat Transient Middle Cerebral Artery Occlusion (tMCAO) model; assay: Cylinder test of motor function in rat tMCAO stroke model; conditions: Example 2; 50 μg/kg SC daily from day 29; day 57 (day 26 all animals ~0.3; vehicle day 57 ~0.4)
# Experimental: Transient middle cerebral artery occlusion was performed according to the method described R. Schmid-Eisaesser et al. Briefly, the right CCA (Common Carotid Artery) was exposed through a midline neck incision and carefully dissected free from surrounding nerves and fascia —from its bifurcation to the base of the skull. The occipital artery branches of the ECA (External Carotid Artery) were then isolated, and these branches were dissected and coagulated. The ECA was dissected further distally and coagulated along with the terminal lingual and maxillary artery branches, which was then divided. The ICA (Internal Carotid Artery) was isolated and carefully separated from the adjacent vagus nerve, and the pterygopalatine artery was ligated close to its origin with a 5-0 nylon suture (SMI, Belgium). […]
# The number of wall contacts performed independently with the left and right forepaw were counted and noted up to a total of 20 wall contacts per animal per session, and only supporting contacts were counted (i.e., full appositions of the paws with open digits to the cylinder walls).
# [4] = test system: rat Transient Middle Cerebral Artery Occlusion (tMCAO) model; assay: Stepping test (forelimb akinesia) in rat tMCAO stroke model
# Experimental: as §1
# Animals were tested for forelimb akinesia in a stepping test (ST). The animal was held by its hind limbs fixed with one hand and the forelimb not to be monitored with the other, while the unrestrained fore-paw touched the table. The number of adjusting steps were counted while the animal is moved, sideways along the table surface (85 cm in approximately five seconds), in the forehand & backhand direction for both forelimbs.
# Animals were also tested for forelimb akinesia in a stepping test (ST) as described in Example 1 on days 29, 43, 50, 57, 64 and 71.
# Animals were also tested for forelimb akinesia in a stepping test (ST) as described in Example 1 on days 29, 43, 50, 57, 64, 71, 78 and 85.
# [5] = test system: rat Transient Middle Cerebral Artery Occlusion (tMCAO) model; assay: Body swing test in rat tMCAO stroke model
# Experimental: as §1
# Animals were also subjected to a body swing test. Each rat was held approximately one inch from the base of its tail. It was then elevated to an inch above a surface of a table. The rat was held in the vertical axis, defined as no more than 10° to either the left or the right side. A swing was recorded whenever the rat moved its head out of the vertical axis to either side. Before attempting another swing, the rat had to return to the vertical position for the next swing to be counted, Twenty (20) total swings were counted. A normal rat typically has an equal number of swings to either side. Following focal ischemia, the rat tends to swing to the contralateral side (left side in this Example). Body swing scores were expressed as a percentage of […] over total swings.
# Animals were also subjected to a body swing test as described in Example 1 on days 29, 43, 50, 57, 64 and 71.
# Animals were also subjected to a body swing test as described in Example 1 on days 29, 43, 50, 57, 64, 71, 78 and 85.
# [6] = test system: rat Transient Middle Cerebral Artery Occlusion (tMCAO) model; assay: Blood flow in the brain cortex (Flow-R Laser Doppler) in rat tMCAO stroke model; conditions: for enhanced blood flow as compared to vehicle controls: Example 1 first phase, day 50
# Experimental: as §1
# (§3) Evaluation of the blood flow in the brain cortex and vessel constriction was carried out using a Flow-R Laser Doppler system, in which intracranial blood flow and vessel diameter (constriction/dilation) was monitored.
# [7] = test system: rat Transient Middle Cerebral Artery Occlusion (tMCAO) model; assay: Blood vessel diameter (Flow-R Laser Doppler) in rat tMCAO stroke model
# Experimental: as §1, §3
# [8] = Example 3, SC daily from day 29, TXA127 100-1,000 μg/kg, TXA302 1-500 μg/kg, by day 43, maintained through day 85
# [9] = Example 3, SC daily from day 29, TXA127 100-1,000 μg/kg, TXA302 1-500 μg/kg, by day 43, maintained or improved through day 85
# [10] = Example 3, SC daily from day 29, TXA127 100-1,000 μg/kg, TXA302 1-500 μg/kg, by day 43, maintained through Day 85
# [11] = Example 3, SC daily from day 29, TXA127 100-1,000 μg/kg, TXA302 1-500 μg/kg, by day 43
# [12] = Example 1 second phase, 500 ug/kg SC from day 51, measured day 108
substance,measurement,setting,value
"Ala^1-Arg^2-Val^3-Ser^4-Ile^5-His^6-Cys^7 (ARVSIHC) [TXA302, angiotensin (1-7) peptide]",neuroscore as compared to vehicle control animals,"[1]; Example 2, 50 μg/kg SC daily from day 29 (28 days post-tMCAO), by day 43, maintained through day 71",statistically significant reduction in neuroscore
same,neuroscore as compared to vehicle control animals,[1]; [8],statistically significant reduction in neuroscore
same,performance in limb placement test as compared to vehicle control animals,"[2]; Example 2, 50 μg/kg SC daily from day 29, by day 43, maintained or improved through day 71",statistically significant improvements in performance
same,performance in limb placement test as compared to vehicle control animals,[2]; [9],statistically significant improvements in performance
same,cylinder test ratio of left paw to right paw contacts,[3],~0.75
same,performance in stepping test as compared to vehicle control animals,"[4]; Example 2, 50 μg/kg SC daily from day 29, by day 43, maintained through Day 71",significant improvement in performance
same,performance in stepping test as compared to vehicle control animals,[4]; [10],significant improvement in performance
same,performance in body swing test,"[5]; Example 2, 50 μg/kg SC daily from day 29, by day 50, maintained through Day 71",statistically significant improvement in performance
same,performance in body swing test,[5]; [11],statistically significant improvement in performance
Asp^1-Arg^2-Val^3-Tyr^4-Ile^5-His^6-Pro^7 (DRVYIHP; listed as Homo sapiens) [TXA127],neuroscore as compared to vehicle control animals,"[1]; Example 1 first phase, 100, 300, 500 μg/kg SC daily or Alzet pump, started 24 hours after tMCAO, all treatment groups by day 15, maintained through day 50",statistically significant reduction in neuroscore
same,neuroscore as compared to vehicle control animals,"[1]; Example 1 second phase, 500 ug/kg SC daily, first treatment day 51 after tMCAO, by day 65",statistically significant improvement
same,neuroscore as compared to vehicle control animals,[1]; [8],statistically significant reduction in neuroscore
same,enhanced blood flow as compared to vehicle controls,[6]; continuous infusion via Alzet pump,~30%
same,enhanced blood flow as compared to vehicle controls,"[6]; subcutaneously administered, each treatment group",~35%
same,blood flow ratio as compared to vehicle control group,[6]; [12],improved
same,performance in forelimb placement test as compared to vehicle control,"[2]; Example 1 first phase, 100, 300, 500 μg/kg SC or Alzet, started 24 hours after tMCAO, all treatment groups by day 15, continued through day 50",statistically significant improvements in performance
same,performance in forelimb placement test,"[2]; Example 1 second phase, 500 ug/kg SC daily from day 51, beginning on day 72, trend as early as day 58",statistically significant improvement in performance
same,performance in limb placement test as compared to vehicle control animals,[2]; [9],statistically significant improvements in performance
same,improvement in blood vessel diameter as compared to vehicle controls,"[7]; Example 1 first phase, continuous infusion via Alzet pump, day 50",~40%
same,"enhanced blood vessel diameter, larger than vehicle control animals","[7]; Example 1 first phase, subcutaneously administered, each treatment group (100, 300, 500 μg/kg), day 50",approximately 20%
same,vessel diameter as compared to vehicle control group,[7]; [12],improved
same,performance in stepping test as compared to vehicle control animals,"[4]; Example 1 first phase, 100, 300, 500 μg/kg SC or Alzet, started 24 hours after tMCAO, all treatment groups by day 22",significant improvement in performance
same,performance in stepping test as compared to vehicle control group,"[4]; Example 1 second phase, 500 ug/kg SC daily from day 51, by day 65, increasing significance by day 86",statistically significant improvement in performance
same,performance in stepping test as compared to vehicle control animals,[4]; [10],significant improvement in performance
same,performance in body swing test,"[5]; Example 1 first phase, 100, 300, 500 μg/kg SC or Alzet, started 24 hours after tMCAO, by day 15, statistical significance by day 22 in some groups, day 29 in all treatment groups",improvement in performance
same,performance in body swing test,"[5]; Example 1 second phase, 500 ug/kg SC daily from day 51, as early as day 58, maintained throughout observation period",trend toward improved performance
same,performance in body swing test,[5]; [11],statistically significant improvement in performance
